Source: article PMC6624251, “Isoform-specific Inhibition of N-methyl-D-aspartate Receptors by Bile Salts” (Scientific Reports, 2019)
Where two headings read alike, the source gives them in different places. One block for each compound: values may come before it.

Tests used:
[1] = target: kainate receptor GluK2 (Rattus norvegicus, UniProt P42260); test: Two-electrode voltage clamp of kainate receptor in Xenopus laevis oocytes; assay type: cell-based; settings: 100 µM CDC; after block of desensitization with ConA; n = 3
Chain of kainate receptor GluK2 (P42260 32-908): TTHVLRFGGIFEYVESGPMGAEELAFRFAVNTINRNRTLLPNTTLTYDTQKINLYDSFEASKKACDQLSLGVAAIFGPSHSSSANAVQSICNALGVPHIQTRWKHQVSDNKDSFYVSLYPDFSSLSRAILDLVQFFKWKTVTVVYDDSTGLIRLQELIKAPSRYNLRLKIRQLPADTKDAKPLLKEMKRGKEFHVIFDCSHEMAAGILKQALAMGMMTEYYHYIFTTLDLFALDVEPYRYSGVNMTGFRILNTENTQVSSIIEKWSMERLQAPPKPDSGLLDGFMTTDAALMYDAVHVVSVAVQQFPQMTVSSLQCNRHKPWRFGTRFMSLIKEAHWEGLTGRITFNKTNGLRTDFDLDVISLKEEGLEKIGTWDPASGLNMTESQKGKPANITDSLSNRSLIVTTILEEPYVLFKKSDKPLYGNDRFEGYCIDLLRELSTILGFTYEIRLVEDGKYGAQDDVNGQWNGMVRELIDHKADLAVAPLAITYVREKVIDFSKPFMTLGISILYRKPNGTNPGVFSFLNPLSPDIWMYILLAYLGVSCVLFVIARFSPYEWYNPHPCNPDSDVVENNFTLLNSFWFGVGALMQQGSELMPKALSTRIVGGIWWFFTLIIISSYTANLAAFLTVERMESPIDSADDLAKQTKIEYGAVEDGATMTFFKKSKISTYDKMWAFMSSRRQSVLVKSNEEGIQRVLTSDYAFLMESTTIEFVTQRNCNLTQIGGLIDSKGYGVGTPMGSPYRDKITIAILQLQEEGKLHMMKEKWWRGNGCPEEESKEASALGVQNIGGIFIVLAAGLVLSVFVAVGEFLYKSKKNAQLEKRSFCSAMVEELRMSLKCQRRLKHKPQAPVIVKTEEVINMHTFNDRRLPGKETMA
Description: (§1) The resulting EC50 or IC50 values were averaged.

[2] = target: AMPA receptor GluA1/GluA2 (Rattus norvegicus, UniProt P19490+P19491); test: Two-electrode voltage clamp of AMPA receptor in Xenopus laevis oocytes; assay type: cell-based; settings: 100 µM CDC; n = 6
Chain of AMPA receptor GluA1/GluA2 (P19490 19-907): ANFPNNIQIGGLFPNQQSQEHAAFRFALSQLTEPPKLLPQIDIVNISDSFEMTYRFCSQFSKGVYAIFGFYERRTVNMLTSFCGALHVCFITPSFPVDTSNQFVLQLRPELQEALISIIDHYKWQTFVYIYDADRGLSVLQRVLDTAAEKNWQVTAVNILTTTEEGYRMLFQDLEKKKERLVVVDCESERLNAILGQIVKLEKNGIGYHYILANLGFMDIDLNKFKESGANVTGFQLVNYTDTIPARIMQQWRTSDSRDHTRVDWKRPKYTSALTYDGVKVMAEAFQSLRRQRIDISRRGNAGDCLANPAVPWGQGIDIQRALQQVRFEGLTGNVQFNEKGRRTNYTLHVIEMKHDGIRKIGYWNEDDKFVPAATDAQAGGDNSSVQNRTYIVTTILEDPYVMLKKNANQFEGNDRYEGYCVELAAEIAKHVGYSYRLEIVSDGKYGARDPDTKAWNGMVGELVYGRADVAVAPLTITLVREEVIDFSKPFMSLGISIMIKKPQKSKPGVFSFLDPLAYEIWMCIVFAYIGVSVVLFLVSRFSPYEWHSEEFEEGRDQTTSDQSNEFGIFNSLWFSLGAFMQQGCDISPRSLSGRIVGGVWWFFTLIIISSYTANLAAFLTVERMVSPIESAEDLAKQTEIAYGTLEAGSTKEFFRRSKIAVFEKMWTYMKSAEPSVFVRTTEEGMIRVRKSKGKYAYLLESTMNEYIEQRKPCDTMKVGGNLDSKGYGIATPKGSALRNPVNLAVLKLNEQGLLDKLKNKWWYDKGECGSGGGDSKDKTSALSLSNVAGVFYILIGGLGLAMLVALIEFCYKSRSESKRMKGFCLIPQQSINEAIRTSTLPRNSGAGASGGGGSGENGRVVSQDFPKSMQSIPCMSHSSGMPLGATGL
Chain of AMPA receptor GluA1/GluA2 (P19491 22-883): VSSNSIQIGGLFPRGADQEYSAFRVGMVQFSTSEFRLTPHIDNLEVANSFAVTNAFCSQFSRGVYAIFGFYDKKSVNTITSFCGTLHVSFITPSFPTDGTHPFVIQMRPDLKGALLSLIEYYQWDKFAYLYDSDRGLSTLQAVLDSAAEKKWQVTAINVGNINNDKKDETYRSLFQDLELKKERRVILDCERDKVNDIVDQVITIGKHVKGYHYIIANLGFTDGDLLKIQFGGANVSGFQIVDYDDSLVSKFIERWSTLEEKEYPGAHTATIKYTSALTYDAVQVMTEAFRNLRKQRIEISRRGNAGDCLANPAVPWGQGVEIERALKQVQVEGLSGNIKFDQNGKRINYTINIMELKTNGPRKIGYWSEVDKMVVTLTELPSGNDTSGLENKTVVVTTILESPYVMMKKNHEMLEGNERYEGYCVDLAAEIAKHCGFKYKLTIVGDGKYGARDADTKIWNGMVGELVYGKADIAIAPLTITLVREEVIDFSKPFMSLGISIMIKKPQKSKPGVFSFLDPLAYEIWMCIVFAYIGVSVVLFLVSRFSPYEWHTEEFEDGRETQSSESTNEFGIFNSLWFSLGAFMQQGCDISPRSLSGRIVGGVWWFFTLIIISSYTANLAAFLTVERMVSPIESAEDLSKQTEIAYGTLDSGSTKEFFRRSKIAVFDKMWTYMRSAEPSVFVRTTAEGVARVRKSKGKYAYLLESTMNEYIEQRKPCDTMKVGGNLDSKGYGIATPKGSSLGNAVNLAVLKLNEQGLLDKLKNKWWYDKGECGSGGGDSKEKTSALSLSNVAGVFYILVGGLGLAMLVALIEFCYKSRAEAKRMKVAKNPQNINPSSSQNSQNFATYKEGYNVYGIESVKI
Description: as §1

[3] = target: GluN3B Ser701 to Ala (Mus musculus, UniProt Q91ZU9, S701A); test: Two-electrode voltage clamp of GluN3B point mutant Ser701 to Ala in oocytes; assay type: cell-based; settings: for Increase in block for the mutant compared with wild type: 100 µM bile salt, n = 11–13
Chain of GluN3B Ser701 to Ala (Q91ZU9 25-1003 S701A, other chains not shown): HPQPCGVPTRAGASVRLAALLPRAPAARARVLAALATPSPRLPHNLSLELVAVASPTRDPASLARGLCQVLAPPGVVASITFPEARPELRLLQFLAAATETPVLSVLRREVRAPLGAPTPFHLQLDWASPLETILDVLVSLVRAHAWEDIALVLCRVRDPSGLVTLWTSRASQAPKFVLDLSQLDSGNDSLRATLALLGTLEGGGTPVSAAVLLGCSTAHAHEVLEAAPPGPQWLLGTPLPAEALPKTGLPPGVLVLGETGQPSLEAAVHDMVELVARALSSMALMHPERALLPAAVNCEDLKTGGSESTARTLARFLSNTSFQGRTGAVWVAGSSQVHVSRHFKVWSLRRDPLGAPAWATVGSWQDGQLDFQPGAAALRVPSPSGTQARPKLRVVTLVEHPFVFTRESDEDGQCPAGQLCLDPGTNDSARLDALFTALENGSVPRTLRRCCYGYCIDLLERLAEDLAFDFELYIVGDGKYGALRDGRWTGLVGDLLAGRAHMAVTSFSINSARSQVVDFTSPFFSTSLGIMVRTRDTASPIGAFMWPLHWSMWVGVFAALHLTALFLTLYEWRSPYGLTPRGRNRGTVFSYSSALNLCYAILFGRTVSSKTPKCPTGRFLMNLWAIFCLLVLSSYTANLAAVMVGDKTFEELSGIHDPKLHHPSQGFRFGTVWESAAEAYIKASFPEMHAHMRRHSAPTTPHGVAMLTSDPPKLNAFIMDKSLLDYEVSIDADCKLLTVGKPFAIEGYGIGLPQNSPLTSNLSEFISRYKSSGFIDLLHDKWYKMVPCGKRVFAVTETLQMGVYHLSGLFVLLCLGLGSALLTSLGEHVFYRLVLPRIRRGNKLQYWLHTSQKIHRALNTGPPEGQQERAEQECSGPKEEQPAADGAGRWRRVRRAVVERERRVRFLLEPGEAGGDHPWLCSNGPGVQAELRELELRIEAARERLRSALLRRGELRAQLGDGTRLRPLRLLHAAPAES
Description: as §1

[4] = target: GluN1/GluN2D receptors (Rattus norvegicus, UniProt P35439+Q62645); test: Two-electrode voltage clamp of recombinant NMDARs in Xenopus laevis oocytes (GluN2D); settings: for IC50: read-out: IC50 Tauro-CDC
Chain of GluN1/GluN2D receptors (Q62645 28-1323, other chains not shown): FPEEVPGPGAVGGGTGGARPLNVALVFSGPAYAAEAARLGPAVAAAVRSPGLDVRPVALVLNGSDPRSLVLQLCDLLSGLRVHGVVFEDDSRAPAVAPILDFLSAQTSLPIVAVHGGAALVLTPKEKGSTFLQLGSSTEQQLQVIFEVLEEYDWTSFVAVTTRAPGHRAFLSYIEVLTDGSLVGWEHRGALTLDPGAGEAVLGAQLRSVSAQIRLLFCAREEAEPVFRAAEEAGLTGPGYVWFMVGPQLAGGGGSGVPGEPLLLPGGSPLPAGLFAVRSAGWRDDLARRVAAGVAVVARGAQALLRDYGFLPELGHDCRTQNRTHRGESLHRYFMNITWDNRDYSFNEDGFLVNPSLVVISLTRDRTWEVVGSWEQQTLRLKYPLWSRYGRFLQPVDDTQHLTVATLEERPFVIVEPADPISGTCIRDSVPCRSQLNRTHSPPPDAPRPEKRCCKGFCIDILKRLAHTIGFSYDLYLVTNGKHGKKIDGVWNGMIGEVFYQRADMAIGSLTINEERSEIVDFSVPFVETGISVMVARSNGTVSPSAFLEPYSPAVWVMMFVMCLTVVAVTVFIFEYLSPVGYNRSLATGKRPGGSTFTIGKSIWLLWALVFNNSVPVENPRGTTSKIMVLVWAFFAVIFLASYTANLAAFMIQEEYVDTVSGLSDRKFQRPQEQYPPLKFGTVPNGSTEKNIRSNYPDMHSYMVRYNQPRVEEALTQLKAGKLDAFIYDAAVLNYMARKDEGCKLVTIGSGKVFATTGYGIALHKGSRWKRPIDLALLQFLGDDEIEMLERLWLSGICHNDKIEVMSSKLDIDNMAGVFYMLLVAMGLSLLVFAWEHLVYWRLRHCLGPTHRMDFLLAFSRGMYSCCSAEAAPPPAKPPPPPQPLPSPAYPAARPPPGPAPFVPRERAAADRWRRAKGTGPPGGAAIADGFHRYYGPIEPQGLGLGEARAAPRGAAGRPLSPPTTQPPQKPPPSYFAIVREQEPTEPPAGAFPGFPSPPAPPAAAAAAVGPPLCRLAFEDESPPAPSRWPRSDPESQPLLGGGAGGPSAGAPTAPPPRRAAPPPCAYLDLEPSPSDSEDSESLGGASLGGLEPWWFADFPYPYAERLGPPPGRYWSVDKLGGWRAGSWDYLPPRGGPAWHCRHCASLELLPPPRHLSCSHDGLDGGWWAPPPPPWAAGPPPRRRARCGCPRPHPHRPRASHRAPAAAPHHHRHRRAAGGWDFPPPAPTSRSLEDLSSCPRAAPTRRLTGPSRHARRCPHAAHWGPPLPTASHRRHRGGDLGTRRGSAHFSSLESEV

[5] = target: GluN3B Tyr505 to Ala (Mus musculus, UniProt Q91ZU9, Y505A); settings: n = 9
Chain of GluN3B Tyr505 to Ala (Q91ZU9 25-1003 Y505A, other chains not shown): as the sequence (Q91ZU9 25-1003 S701A, other chains not shown) above, with Y481A, A677S counted along it

[6] = target: GluN1/GluN3B receptors (Mus musculus, UniProt Q91ZU9); test: Two-electrode voltage clamp of recombinant NMDARs in Xenopus laevis oocytes (GluN3B); settings: for maximum block by tauro-CDC / IC50: n = 6; for IC50: read-out: mean IC50 for tauro-CDC
Chain of GluN1/GluN3B receptors (Q91ZU9 25-1003, other chains not shown): as the sequence (Q91ZU9 25-1003 S701A, other chains not shown) above, with A677S counted along it

[7] = system: NMDAR; design: method as in PMID 1372086; settings: read-out: reported EC50; cited from earlier work
[8] = system: uninjected oocytes; test: Agonist application to uninjected oocytes; assay type: cell-based, Xenopus laevis; settings: n = 3
Description: as §1

Reduction of GluA1/GluA2 currents [2]: 7 ± 1% | Increase in block for the mutant compared with wild type [3]: 15%
Compound: C[C@H](CCC(=O)O)[C@H]1CC[C@H]2[C@@H]3[C@H](O)C[C@@H]4C[C@H](O)CC[C@]4(C)[C@H]3CC[C@]12C [CDC, chenodeoxycholate]
Inhibition of glutamate-induced steady-state GluK2 current [1]: no inhibition

Compound: N[C@@H](CCC(=O)O)C(=O)O [Glu, glutamate]
max. Glu-induced current [normalized] ([4]; 10 µM Gly): 1.00 ± 0.17 (7) | max. Glu-induced current [normalized] ([4]; 10 µM Gly + 180 µM Tauro-CDC): 0.25 ± 0.06 (7)

Compound: NCC(=O)O [Gly, glycine]
Activation of mutant receptor by agonist [5]: could not be activated | glycine-induced currents ([6]; wild type, n = 30): 835 ± 85 nA | glycine-induced currents ([3]; Ser701 to Ala mutant, n = 29): 106 ± 12 nA

Compound: N[C@@H](CCS(=O)(=O)O)C(=O)O [L-HCA, L-homocysteic acid]
EC50 [7]: 13 µM | Activation of GluN3B by agonist ([6]; concentrations of up to 1 mM, n = 4): could not be activated

Compound: O=C(O)c1cccnc1C(=O)O [QN, quinolinic acid]
Effect on uninjected oocytes [8]: no effect | EC50 [7]: 7200 µM

max. block by Tauro-CDC ([4]; 10 µM Gly, 0.51 µM Glu): 100 ± 4 (11) % | max. block by Tauro-CDC ([4]; 10 µM Gly, 150 µM Glu): 87 ± 3 (13) % | Block of L-HCA-induced GluN2D currents ([4]; 100 µM tauro-CDC, L-HCA 13 µM, 10 µM glycine co-agonist, n = 12): 30 ± 2% | Inhibition of QN-induced GluN2D currents ([4]; 100 µM tauro-CDC, QN 1 mM, 10 µM glycine co-agonist, n = 7): 29 ± 2% | Reduction of QN-induced GluN2D currents ([4]; 100 µM tauro-CDC, QN 7.2 mM, 10 µM glycine co-agonist, n = 7): 26 ± 2% | Effect in the absence of NMDAR agonists (partial agonist action) ([4]; 100 µM tauro-CDC, n = 4): no effects | max. block by Tauro-CDC ([4]; […] Gly, 150 µM Glu): 98 ± 3 (8) % | IC50 ([4]; 10 µM Gly, 0.51 µM Glu): 137 ± 8 µM | IC50 ([4]; 10 µM Gly, 150 µM Glu (saturating agonist concentration)): 179 ± 11 µM | IC50 ([4]; […] Gly, 150 µM Glu): 153 ± 8 µM | maximum block by tauro-CDC ([6]; 5 μM glycine): 92 ± 3% | maximum block by tauro-CDC ([6]; 10 μM glycine): 95 ± 3% | Effect in the absence of NMDAR agonists (partial agonist action) ([6]; 100 µM tauro-CDC, n = 4): no effects | IC50 ([6]; in the presence of 5 μM glycine): 44 ± 7 µM | IC50 ([6]; in the presence of 10 μM glycine): 83 ± 8 µM | Reduction of QN-induced GluN3B currents ([6]; tauro-CDC 100 µM, QN 7.2 mM, n = 5): about 68 ± 4% | Increase in block for the mutant compared with wild type [3]: 15%
Compound: C[C@H](CCC(=O)NCCS(=O)(=O)O)[C@H]1CC[C@H]2[C@@H]3[C@H](O)C[C@@H]4C[C@H](O)CC[C@]4(C)[C@H]3CC[C@]12C [Tauro-CDC]
Effect on I/V relationship and reversal potential of agonist-induced currents ([4]; 100 µM tauro-CDC, n = 10–11): did neither change the shape of I/V relationships nor did it shift the reversal potentials | Effect on I/V relationship and reversal potential of agonist-induced currents ([6]; 100 µM tauro-CDC, n = 10–11): did neither change the shape of I/V relationships nor did it shift the reversal potentials
